Assay results: ChEMBL document CHEMBL1201862, “PubChem BioAssay data set” (2004)
Calls of active or inactive are those of the source.

How the values were obtained:
[1] = MITF Orthogonal Assay: SK-MEL-5 CTG Assay Measured in Cell-Based System Using Plate Reader - 2084-02_Inhibitor_Dose_DryPowder_Activity_Set7.; type: functional
[2] = MITF: Counter assay: A375 proliferation Measured in Cell-Based System Using Plate Reader - 2084-03_Inhibitor_Dose_DryPowder_Activity_Set8.; type: functional; conditions: A-375
[3] = inhibitors of TRPM1-promoter reporter in SK-MEL-5 – cell-based, luciferase, dry powder, set 8, MITF inhibitor project, dose response (AID 624430); type: functional
Protein Wnt-3a = Protein Wnt-3a (Mus musculus, UniProt P27467); assay: SAR analysis of small molecule antagonists of Gli-SUFU in a Wnt3a luminescent reporter assay.; type: functional
[4] = biological target: FAD-linked sulfhydryl oxidase ALR (Homo sapiens, UniProt P55789); assay: ALR-catalysed DTT oxidation blockers – biochemical, H2O2 detection, luminescence, cherry-pick, dose response (AID 493248)
fMet-Leu-Phe receptor = fMet-Leu-Phe receptor (Homo sapiens, UniProt P21462); assay: formyl peptide receptor binders – dose response (AID 519); type: functional
Major prion protein = Major prion protein (Homo sapiens, UniProt P04156); type: functional, cell-based
cells [5] = assay: cells
[6] = viability loss in HEK293 kidney cells – cell-based, cherry-picks, set 5, cytotoxicity control, dose response (AID 1053117); type: functional
Mu-type opioid receptor = Mu-type opioid receptor (Homo sapiens, UniProt P35372); type: functional, cell-based;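 note: U2OS cells with beta-arrestin recruitment to OPRM1 by beta-gal complementation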
[7] = biological target: 5-hydroxytryptamine receptor 2A (Mus musculus, UniProt P35363); type: functional, cell-based;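 note: CHO-K1 cells with tagged receptor and beta-arrestin; agonist potency measured as compound-induced activation of the receptor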
cells [8] = type: functional, cell-based
[9] = biological target: Nuclear receptor subfamily 0 group B member 1 (Homo sapiens, UniProt P51843); type: functional, cell-based;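 note: HEK293T cells transfected with SF-1 and DAX-1 plus StAR promoter luciferase reporter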
[10] = viability loss in A549 lung cancer cells – cell-based, CellTiter-Glo luminescence, dry powder, set 3, cytotoxicity control, dose response (AID 743146); type: functional
[11] = A Cell-Based Confirmatory Screen for Compounds that Inhibit VEEV, TC-83 (8).; type: functional
[12] = A Cell-Based Confirmatory Screen for Compounds that Inhibit VEEV, TC-83 (7).; type: functional

CC(C)N1CCN(C2=C(Nc3cccc(Cl)c3)C(=O)c3ccccc3C2=O)CC1
AC50 [1]: 7.16 µM (active) | AC50 [2]: 30.1 µM (active) | AC50 [3]: 2.47 µM (active)

O=C(Nc1cc(N2CCCCC2)ncn1)c1ccccc1C(F)(F)F
IC50 (Protein Wnt-3a): 6.48 µM (active)

Cc1nnc(SCc2cnc(-c3ccccc3)o2)nc1O
AC50 [4]: 0.547 µM (active) | Ki (fMet-Leu-Phe receptor): > 66.7 µM (inactive)

CCOC(=O)C(C)Sc1nc(-c2ccccc2)nc2ccccc12 (stereo unspecified)
IC50 (Major prion protein): 1.83 µM (active) | IC50 (cells [5]): > 138 µM (inactive)

O=S(=O)(c1cccc(F)c1)N1CC[C@@H]2[C@H]1c1cc(-c3cccc(F)c3)ccc1N[C@@H]2CO
AC50 [6]: 33.9 µM (active)

CCCCCc1cc(=O)oc2c(C(CCN3CCN(c4ccccc4)CC3)c3ccc4c(c3)OCO4)c(OC)cc(OC)c12 (stereo unspecified)
EC50 (Mu-type opioid receptor): 92.5 µM (inactive) | EC50 [7]: 76.1 µM (inactive)

CCc1ccc(NC(=O)N2CCc3ccccc3C2)cc1
IC50 (cells [8]): > 67.6 µM (inactive) | IC50 [9]: > 67.6 µM (inactive)

O=C(CCNC(=O)c1ccc(Cl)cc1)N[C@H]1CCCc2ccccc21
AC50 [10]: > 52 µM (inactive)

CN1CCN(C)/C(=N/c2ccc([N+](=O)[O-])cc2C(=O)Nc2ccccc2)C1
IC50 [11]: < 0.073 µM (active) | IC50 [12]: < 0.04 µM (active)
